Test results published in patent US7122214B2, “Drynaria extractions for treating osteoporosis and their extraction process” (priority 2000, dated 2006).

Columns and labels:
Primary Osteoporosis [1] = experiment: Clinical test of RDE on primary osteoporosis: bone density by double-energy X-ray bone density meter; type: in vivo, human; conditions: for Bone density of collum femoris / Bone density of trigonal area of femur / Bone density of trochanteric of femur / Bone density of lumber (L2–L4): RDE 180 mg po tid, α-D3 0.5 μg po bid; for Bone density of lumber (L2–L4): n=17 per group
Experimental: (§1) The drugs with the following dosages and contents are used unless additional explanations.
(§2) Extracts in this present invention: capsules of preparation example 1, each capsule contains 0.18 g of effective component. Positive control medicine: α-D3, (synthesized by TEVA PHARMACEUTICALS, Israel, prepared by Sino-US Kunming BARKER NORTON PHARMACEUTICAL CO., LTD), each capsule contains 0.5 μg of effective component)
(§3) Diagnostic criteria: Comprehensive Diagnostic Grades for Primary Osteoporosis, according to the diagnostic criteria established by Specialized Committee of Osteoporosis of Chinese Association of Geriatrics. (cf. Gu-zhi-shu-song-zheng [M], p169–171, LIU Zhonghou eds. Chemical Industrial Press, Guangzhou, 1992)
(§4) According to the diagnostic criteria mentioned above, 70 cases of osteoporosis are randomly divided into treatment group with RDE and control group with α-D3. RDE is administrated 180 mg, per os, tid, for 6 months-2 period of treatment. And α-D3 is administrated 0.5 μg, per os, bid, for 6 months too.
(§5) Bone density of lumbar (L2–L4) and top-femur (collum femoris, trigonal area of femur, trochanteric of femur) is checked respectively by Double-Energy X-ray Bone Density Meter (LUNAR DPX-L DEXA bone densitometer,US). The unit is g/cm^2. And an Ultrasonic Bone Densitometer (model 2000-SYS-220, METRA Co., Israel) is employed to check the bone density of mid-portion of tibia.

Primary Osteoporosis [2] = experiment: Clinical test of RDE on primary osteoporosis: ultrasonic bone density of mid-portion of tibia; type: in vivo, human; conditions: for ultrasonic bone density, Age matched (difference value) / ultrasonic bone density, Young adult (difference value): RDE 180 mg po tid (n=16), α-D3 0.5 μg po bid (n=15)
Experimental: as §1, §2, §3, §4, §5

[3] = tested on: Tretinoin-induced osteoporosis in rats; experiment: Bone density in Tretinoin-induced osteoporosis model in rats; type: in vivo, Wistar rats
Experimental: (§6) Observe the effect of RDE in this invention on both Tretinoin-induced and Ovariectomized (OVX) osteoporosis model in rats.
(§7) RDE was produced according to Example 1 (Per gram extract is equivalent to 66.67 g crude drugs). RDE was dissolved in distilled water to a concentration of 0.47 mg/ml before administration. And administration was conducted via gastric tube. Tretinoin is manufactured by Chongqing Huabang Pharmaceuticals, Ltd. and was suspended to the concentration of 1.5% with distilled water. Control drug α-D3 was manufactured by TEVA PHARMACEUTICALS, Israel, which is solved in distilled water to the concentration of 0.03 μg/ml before using and administrated orally via gastric tube.
(§8) Tretinoin-induced osteoporosis rats: sixty female W istar rats, 16-week-old, mean weight 234.85±15.32 g. Ovariectomized rats: sixty female Wistar rats, 12-week-old, mean weight 183.46±12.45 g. All the animals are obtained from the Experimental Animal Center of Chinese Military Medical Academy.
(§9) Bone Biomechanics Rheometer was manufactured by Stevens Company, Great Britain (model QTS-25). X ray Bone-density-meter was manufactured by Norland Company, USA (model XR-26). The others are all obtained from market.
(§10) 4. Dose Selections and Groups: • (1) Tretinoin-induced group: Sixty rats are randomly allocated to six groups (10 rats per group). Blank group: control animals received PSS/d (physiological saline solution) alone. […]
(§11) The dose administered to each animal is calculated from the individual body weight recorded at the end of each week. […]
(§12) 7. […] Bone biomechanics measurements: three point bending tests of left thighbone of each animal are performed; load-deformation curve is recorded to measure the biomechanics index. […] Bone structural mechanics parameters: breaking load, elastic load, maximum radius, elastic radius, maximum energy absorption; bone material mechanics parameters: firstly calculated the Femoral Section Inertial Moment, then computed the maximum strain, elastic strain, maximum stress, elastic stress and elastic modulus according to the formulae. […]

[4] = tested on: Ovariectomized (OVX) rats; experiment: Bone density in Ovariectomized (OVX) osteoporosis model in rats; type: in vivo, Wistar rats
Experimental: as §6, §7, §8, §9, §10, §11, §12

[5] = tested on: Tretinoin-induced osteoporosis in rats; experiment: Bone biomechanics (three point bending of left thighbone) in Tretinoin-induced osteoporosis rats; type: in vivo, Wistar rats
Experimental: as §6, §7, §8, §9
4. Dose Selections and Groups: • (1) Tretinoin-induced group: Sixty rats are randomly allocated to six groups (10 rats per group). Blank group: control animals received PSS/d (physiological saline solution) alone. Model group: Tretinoin is given orally 70 mg/kg/d; α-D3 group: both tretinoin and α-D3 are given orally 70 mg/kg/d and 0.002 μg/kg/d respectively; RDE low-dose group: both tretinoin and RDE are given orally 70 mg/kg/d and 54 mg/kg/d respectively; RDE medium-dose group: tretinoin 70 mg/kg/d and RDE 108 mg/kg/d; RDE high-dose group: tretinoin 70 mg/kg/d and RDE 216 mg/kg/d. • (2) Ovariectomized (OVX) rats group: Sixty rats are randomly allocated to six groups (10 rats per group). Blank group is the normal rats. All the other groups are removed amphi-ovaries. Model group received PSS only; α-D3 group: α-D3 is administrated orally 0.002 μg/kg/d; And RDE is administrated orally in the dose of 54, 108, 216 mg/kg/day to OVX rats respectively, corresponding to RDE groups of low-dose, medium-dose and high-dose.
The dose administered to each animal is calculated from the individual body weight recorded at the end of each week.
Tretinoin-induced osteoporosis groups: Blank group received PSS during the course of experiment. The other groups commenced treatment on the same day, designated study Day 1, and once-daily tretinoin orally given for 14 days, after which they stopped administrating tretinoin. Both blank and model groups are given PSS in Day 15, and α-D3 group is given α-D3, RDE groups are given the corresponding dose of RDE orally for 14 days. The final dose is given in the Day 28 before sacrificed. Investigation of Bone Density and Bone-biomechanics are performed in the Day 29.
7. Measurements • 7.1. Bone density measurements are performed on No.2–4 lumbar spines and right thighbone of each animal. • 7.2. Bone biomechanics measurements: three point bending tests of left thighbone of each animal are performed; load-deformation curve is recorded to measure the biomechanics index. Experimental parameters: span 20 mm, loading velocity 10 mm/min. Bone structural mechanics parameters: breaking load, elastic load, maximum radius, elastic radius, maximum energy absorption; bone material mechanics parameters: firstly calculated the Femoral Section Inertial Moment, then computed the maximum strain, elastic strain, maximum stress, elastic stress and elastic modulus according to the formulae. [Results]

[6] = tested on: Ovariectomized (OVX) rats; experiment: Bone biomechanics (three point bending of left thighbone) in Ovariectomized (OVX) rats; type: in vivo, Wistar rats
Experimental: Observe the effect of RDE in this invention on both Tretinoin-induced and Ovariectomized (OVX) osteoporosis model in rats. […] RDE was dissolved in distilled water to a concentration of 0.47 mg/ml before administration. And administration was conducted via gastric tube. Tretinoin is manufactured by Chongqing Huabang Pharmaceuticals, Ltd. and was suspended to the concentration of 1.5% with distilled water. Control drug α-D3 was manufactured by TEVA PHARMACEUTICALS, Israel, which is solved in distilled water to the concentration of 0.03 μg/ml before using and administrated orally via gastric tube. Tretinoin-induced osteoporosis rats: sixty female […]-old, mean weight 234.85±15.32 g. Ovariectomized rats: sixty female Wistar rats, 12-week-old, mean weight 183.46±12.45 g. All the animals are obtained from the Experimental Animal Center of Chinese Military Medical Academy. Bone Biomechanics Rheometer was manufactured by Stevens Company, Great Britain (model QTS-25). X ray Bone-density-meter was manufactured by Norland Company, USA (model XR-26). The others are all obtained from market. 4. Dose Selections and Groups: • (1) Tretinoin-induced group: Sixty rats are randomly allocated to six groups (10 rats per group). Blank group: control animals received PSS/d (physiological saline solution) alone. Model group: Tretinoin is given orally 70 mg/kg/d; α-D3 group: both tretinoin and α-D3 are given orally 70 mg/kg/d and 0.002 μg/kg/d respectively; RDE low-dose group: both tretinoin and RDE are given orally 70 mg/kg/d and 54 mg/kg/d respectively; RDE medium-dose group: tretinoin 70 mg/kg/d and RDE 108 mg/kg/d; RDE high-dose group: tretinoin 70 mg/kg/d and RDE 216 mg/kg/d. • (2) Ovariectomized (OVX) rats group: Sixty rats are randomly allocated to six groups (10 rats per group). Blank group is the normal rats. All the other groups are removed amphi-ovaries. Model group received PSS only; α-D3 group: α-D3 is administrated orally 0.002 μg/kg/d; And RDE is administrated orally in the dose of 54, 108, 216 mg/kg/day to OVX rats respectively, corresponding to RDE groups of low-dose, medium-dose and high-dose. The dose administered to each animal is calculated from the individual body weight recorded at the end of each week. OVX rats groups: Both blank and model groups are given the same volume of distilled water orally, All the other groups commenced treatment according to the way mentioned above for 12 weeks after which animals are sacrificed and investigation of Bone Density and Bone-biomechanics are performed. 7. Measurements • 7.1. […] Bone biomechanics measurements: three point bending tests of left thighbone of each animal are performed; load-deformation curve is recorded to measure the biomechanics index. Experimental parameters: span 20 mm, loading velocity 10 mm/min. Bone structural mechanics parameters: breaking load, elastic load, maximum radius, elastic radius, maximum energy absorption; bone material mechanics parameters: firstly calculated the Femoral Section Inertial Moment, then computed the maximum strain, elastic strain, maximum stress, elastic stress and elastic modulus according to the formulae. [Results]

[7] = Inventors' investigation of activity of improving osteoporosis (no method given); conditions: no data or method given
[8] = α-D3 0.002 μg/kg/d oral 14 days after tretinoin 70 mg/kg/d 14 days
[9] = OVX rats, α-D3 0.002 μg/kg/d oral 12 weeks

C=C1/C(=C\C=C2/CCC[C@]3(C)[C@@H]([C@H](C)CCCC(C)C)CC[C@@H]23)C[C@@H](O)C[C@@H]1O [α-D3]
Bone density of collum femoris (Primary Osteoporosis [1]; Before-treatment (baseline)): 0.748 ± 0.095 g/cm^2
Bone density of trigonal area of femur (Primary Osteoporosis [1]; Before-treatment (baseline)): 0.582 ± 0.125 g/cm^2
Bone density of trochanteric of femur (Primary Osteoporosis [1]; Before-treatment (baseline)): 0.606 ± 0.109 g/cm^2
Bone density of lumber (L2–L4) (Primary Osteoporosis [1]; Before-treatment (baseline)): 0.958 ± 0.180 g/cm^2
Change of bone density of collum femoris after vs before treatment (Primary Osteoporosis [1]; after 3 and 6 months, within group): no significant difference
Bone density of collum femoris (Primary Osteoporosis [1]; after 3 months treatment): 0.744 ± 0.100 g/cm^2
Bone density of trigonal area of femur (Primary Osteoporosis [1]; after 3 months treatment): 0.591 ± 0.124 g/cm^2
Bone density of trochanteric of femur (Primary Osteoporosis [1]; after 3 months treatment): 0.616 ± 0.099 g/cm^2
Bone density of lumber (L2–L4) (Primary Osteoporosis [1]; after 3 months treatment): 0.954 ± 0.179 g/cm^2
Change of bone density of lumber (L2–L4) after vs before treatment (Primary Osteoporosis [1]; after 3 or 6 months treatment, within group): no improvement
Bone density of collum femoris (Primary Osteoporosis [1]; after 6 months treatment): 0.744 ± 0.093 g/cm^2
Bone density of trigonal area of femur (Primary Osteoporosis [1]; after 6 months treatment): 0.581 ± 0.134 g/cm^2
Bone density of trochanteric of femur (Primary Osteoporosis [1]; after 6 months treatment): 0.616 ± 0.094 g/cm^2
Bone density of lumber (L2–L4) (Primary Osteoporosis [1]; after 6 months treatment): 0.958 ± 0.145 g/cm^2
ultrasonic bone density, Age matched (difference value) (Primary Osteoporosis [2]; Before-treatment (baseline)): −1.433 ± 0.788 g/cm^2
ultrasonic bone density, Young adult (difference value) (Primary Osteoporosis [2]; Before-treatment (baseline)): −1.993 ± 0.872 g/cm^2
Speed sound, change self-compared within group (Primary Osteoporosis [2]; RDE P<0.01, α-D3 P<0.05): increase significantly
ultrasonic bone density, Age matched (difference value) (Primary Osteoporosis [2]; after 3 months treatment): −1.386 ± 0.908 g/cm^2
ultrasonic bone density, Young adult (difference value) (Primary Osteoporosis [2]; after 3 months treatment): −1.953 ± 1.181 g/cm^2
ultrasonic bone density, Age matched (difference value) (Primary Osteoporosis [2]; after 6 months treatment): −0.987 ± 1.068 g/cm^2
ultrasonic bone density, Young adult (difference value) (Primary Osteoporosis [2]; after 6 months treatment): −0.593 ± 1.209 g/cm^2
femoral bone density compared with model group ([3]; Tretinoin-induced osteoporosis rats (Table 9)): increased obviously
Bone density Lumber spine [3, 8]: 0.135 ± 0.005 g/cm^2
Bone density thighbone [3, 8]: 0.137 ± 0.004 g/cm^2
femoral bone density compared with model group ([4]; OVX rats (Table 10)): increased obviously
Bone density Lumber spine [4, 9]: 0.13 ± 0.009 g/cm^2
Bone density thighbone [4, 9]: 0.13 ± 0.009 g/cm^2
all the bone structural mechanics indicators compared with model group ([5]; Tretinoin-induced osteoporosis rats (Table 11)): increased significantly
Elastic load [5, 8]: 100.40 ± 7.00 N
Elastic strain (material) [5, 8]: 0.03 ± 0.01
Elastic strain (structural) [5, 8]: 1.01 ± 0.14 mm
Elastic stress [5, 8]: 177.6 ± 51.3 N/mm^2
Maximum energy observation [5, 8]: 635.73 ± 114.46 N-mm
Maximum load [5, 8]: 103.20 ± 3.40 N
Maximum strain (material) [5, 8]: 0.03 ± 0.009
Maximum strain (structural) [5, 8]: 0.98 ± 0.14 mm
Maximum stress [5, 8]: 167.2 ± 44.5 N/mm^2
Rigidity coefficient [5, 8]: 30561 ± 9194 N/mm^2
all the bone structural mechanics indicators compared with model group ([6]; OVX rats (Table 12)): increased significantly
Area of bone cortes [6, 9]: 4.13 ± 0.99
Elastic load [6, 9]: 88.6 ± 12.7 N
Elastic mould [6, 9]: 7992 ± 1132
Elastic strain (material) [6, 9]: 0.03 ± 0.010
Elastic stress [6, 9]: 147.2 ± 11.00 N/mm^2
Maximum energy observation [6, 9]: 520.48 ± 108.44 N-mm^2
Maximum load [6, 9]: 102.1 ± 2.90 N
Maximum strain (material) [6, 9]: 0.03 ± 0.006
Maximum strain (structural) [6, 9]: 0.96 ± 0.10 mm
Maximum stress [6, 9]: 221.5 ± 46.50 N/mm^2
Rigidity coefficient [6, 9]: 27508 ± 8073

C[C@@H]1O[C@@H](O[C@H]2[C@H](Oc3cc(O)c4c(c3)O[C@H](c3ccc(O)cc3)CC4=O)O[C@H](CO)[C@@H](O)[C@@H]2O)[C@H](O)[C@H](O)[C@H]1O [naringin]
activity of improving osteoporosis [7]: has the activity of improving osteoporosis
efficiency in improving osteoporosis relative to the active extracts [7]: lower than the active extracts
